{"source": "patent US9173912B2", "about": "(priority 2008, dated 2015)", "key": {"[1]": {"tested_on": "herpes simplex viruses type 1 (HSV-1)", "experiment": "Virustatic activity: supernatant of infected human cells after inoculation with extract", "format": "cell-based", "from_the_text": "(§1) In addition, a quite universal usability of the invented extract on viral diseases could be shown with herpes simplex viruses type 1 (HSV-1):\nThe definition of virustatic activity is then identified via the supernatant of infected human cells after inoculation with extract. Aciclovir is the accepted positive control."}, "[2]": {"tested_on": "herpes simplex viruses type 1 (HSV-1)", "experiment": "Virucidal activity: viral suspension exposed to extract, then infectiousness in cells measured", "format": "cell-based", "conditions": "Herpes Simplex Virus I", "method": "as §1\nIn order to define the virucidal activity, a viral suspension is exposed to the extract and then the infectiousness of viruses in the cells is measured. Ethanol is used for positive controls."}, "[3]": {"target": "neuraminidase of Clostridium perfringens", "conditions": "read-out: IC 50 neuraminidase, Zanamivir column"}, "[4]": {"experiment": "Inactivation of superoxide anions after stimulation with PMA (colour reduction)", "conditions": "test concentration 200 μg/ml, versus untreated control (0% inactivation)", "method": "The concentration of oxygen radicals (superoxide anions) is regarded as measure for oxidative stress in organic tissues. By means of quantifying superoxide anions with a color reduction after stimulating with phorbol-12-myristat-13-acetate (PMA), the following antioxidative capacities have been recorded (test concentration 200 μg/ml) in comparison to an untreated control (0% inactivation): […]"}}}
{"molecule": "CCO", "note": "[Ethanol]", "values": [{"measurement": "IC 50 Virustatic", "setting": "[1]; Herpes Simplex Virus I", "value": "ineffective"}, {"measurement": "IC50", "setting": "[2]; Human alphaherpesvirus 1, read-out: IC 50 Virucidal", "value": 80, "unit": "mg/mL"}]}
{"molecule": "Nc1nc2c(ncn2COCCO)c(=O)[nH]1", "note": "[Aciclovir]", "values": [{"measurement": "IC50", "setting": "[1]; Human alphaherpesvirus 1, Herpes Simplex Virus I, read-out: IC 50 Virustatic", "value": 0.0002, "unit": "mg/mL"}, {"measurement": "IC 50 Virucidal", "setting": "[2]", "value": "ineffective"}]}
{"molecule": "CC(=O)N[C@H]1[C@H]([C@H](O)[C@H](O)CO)OC(C(=O)O)=C[C@@H]1N=C(N)N", "note": "[Zanamivir]", "values": [{"measurement": "IC50", "setting": "[3]", "value": "> 200", "unit": "µM"}]}
{"molecule": "O=C1O[C@H]([C@@H](O)CO)C(O)=C1O", "note": "[Vitamin C]", "values": [{"measurement": "Antioxidative capacity, inactivation of superoxide anions", "setting": "[4]", "value": 96.6, "unit": "%"}]}
